Measurements: patent US20250382344A1, “Soluble GLP1/GIP/NPY2 Receptor Triple Agonists” (Boehringer Ingelheim International GmH, priority 2024, published 2025)
Like-named read-outs stand apart in the source and are kept apart here.

Tests used:
hGLP1R = target: T1, hGLP1R (Homo sapiens, UniProt P43220); assay: hGLP1R CreLuc assay in 0.5% and 100% plasma (HEK-293 CRE-luciferase reporter cells); format: cell-based; conditions: HEK-293 reporter cells
T1 construct: expressed in transfected cells; host or cells: HEK-293 CRE-luciferase reporter cells
T1 sequence (P43220 24-463): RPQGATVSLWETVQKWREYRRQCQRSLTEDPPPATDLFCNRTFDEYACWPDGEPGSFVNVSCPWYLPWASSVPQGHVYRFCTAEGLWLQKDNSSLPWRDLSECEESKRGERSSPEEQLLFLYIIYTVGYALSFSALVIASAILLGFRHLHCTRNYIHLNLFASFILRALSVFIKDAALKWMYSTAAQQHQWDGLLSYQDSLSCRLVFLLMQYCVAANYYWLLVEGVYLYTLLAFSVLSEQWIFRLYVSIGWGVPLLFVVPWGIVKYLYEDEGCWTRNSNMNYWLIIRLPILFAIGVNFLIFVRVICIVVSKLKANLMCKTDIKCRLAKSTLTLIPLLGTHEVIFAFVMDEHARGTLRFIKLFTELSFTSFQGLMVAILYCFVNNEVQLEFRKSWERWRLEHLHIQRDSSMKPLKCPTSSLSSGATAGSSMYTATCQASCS

hGIPR = target: T2, hGIPR (Homo sapiens, UniProt P48546); assay: hGIPR CreLuc assay in 0.5% and 100% plasma (CHO CRE-luciferase reporter cells); format: cell-based; conditions: 0.5% human plasma, read-out: hGIPR 0.5% hP
T2 construct: expressed in transfected cells; host or cells: CHO CRE-luciferase reporter cells
T2 sequence (P48546 22-466): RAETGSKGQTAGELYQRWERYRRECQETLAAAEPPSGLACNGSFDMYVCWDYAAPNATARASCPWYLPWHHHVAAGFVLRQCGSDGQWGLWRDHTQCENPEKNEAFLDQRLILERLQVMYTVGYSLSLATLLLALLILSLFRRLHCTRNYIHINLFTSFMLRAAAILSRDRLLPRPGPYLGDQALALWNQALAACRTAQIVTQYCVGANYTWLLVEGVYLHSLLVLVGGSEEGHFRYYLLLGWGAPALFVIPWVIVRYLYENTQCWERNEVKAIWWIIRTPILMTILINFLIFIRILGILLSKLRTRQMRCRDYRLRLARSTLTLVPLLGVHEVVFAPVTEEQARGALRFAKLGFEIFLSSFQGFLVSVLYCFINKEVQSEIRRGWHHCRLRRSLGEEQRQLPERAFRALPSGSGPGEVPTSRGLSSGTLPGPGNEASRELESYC

hNPY2R = target: T3, hNPY2R (Homo sapiens, UniProt P49146); assay: hNPY2R CreLuc assay in 0.5% and 100% plasma (HEK-293 CRE-luciferase reporter cells); format: cell-based; conditions: HEK-293 reporter cells
T3 construct: expressed in transfected cells; host or cells: HEK-293 CRE-luciferase reporter cells
T3 sequence (P49146 1-381): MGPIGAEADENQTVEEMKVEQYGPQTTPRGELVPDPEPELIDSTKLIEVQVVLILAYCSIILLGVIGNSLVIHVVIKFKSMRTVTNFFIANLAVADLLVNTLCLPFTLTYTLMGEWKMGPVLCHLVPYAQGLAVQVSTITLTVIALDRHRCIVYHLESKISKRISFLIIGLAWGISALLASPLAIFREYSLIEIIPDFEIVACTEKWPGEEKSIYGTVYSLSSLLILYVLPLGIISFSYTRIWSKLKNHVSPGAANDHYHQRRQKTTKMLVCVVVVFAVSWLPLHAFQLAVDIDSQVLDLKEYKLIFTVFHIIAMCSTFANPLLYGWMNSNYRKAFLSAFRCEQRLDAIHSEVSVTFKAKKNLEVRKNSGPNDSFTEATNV

[1] = Solubility in 0.1 M phosphate buffer at pH 7; format: physicochemical; conditions: 0.1 M phosphate buffer at pH 7, 10 mg/mL final peptide concentration, shaking 2 hours at room temperature, peptides as TFA-salts; measured sample pH 6.5-7.0
[2] = 0.5% human plasma, read-out: hGLP1R 0.5% hP
[3] = 100% human plasma, read-out: hNPY2R 100% hP
[4] = 100% human plasma, read-out: hGLP1R 100% hP
[5] = 0.5% human plasma, read-out: hNPY2R 0.5% hP

| EC50 (hGLP1R; [2]) [nM] | EC50 (hGIPR) [nM] | EC50 (hNPY2R; [3]) [nM] | solubility at 2 h [1] [µg/mL] | EC50 (hGLP1R; [4]) [nM] | EC50 (hNPY2R; [5]) [nM] | SMILES |
| --- | --- | --- | --- | --- | --- | --- |
| 1.7 | 0.2 | 57.9 | 4900 |  |  | CC[C@H](C)[C@H](NC(=O)[C@H](CC(C)C)NC(=O)[C@H](Cc1c[nH]cn1)NC(=O)[C@H](CCCNC(=N)N)NC(=O)[C@@H](NC(=O)[C@H](Cc1ccccc1)NC(=O)[C@H](C)NC(=O)C(C)(C)NC(=O)[C@H](CCC(N)=O)NC(=O)[C@H](C)NC(=O)[C@H](CCC(N)=O)NC(=O)[C@H](CCCCN)NC(=O)[C@H](CCC(=O)O)NC(=O)[C@H](CC(C)C)NC(=O)C(C)(C)NC(=O)[C@@H](NC(=O)[C@H](CO)NC(=O)[C@H](Cc1ccc(O)cc1)NC(=O)[C@H](CC(=O)O)NC(=O)[C@H](CO)NC(=O)[C@@H](NC(=O)[C@H](Cc1ccccc1)NC(=O)[C@@H](NC(=O)CNC(=O)[C@H](CCC(=O)O)NC(=O)C(C)(C)NC(=O)[C@@H](N)Cc1ccc(O)cc1)[C@@H](C)O)[C@@H](C)O)[C@@H](C)CC)C(C)C)C(=O)N[C@@H](CC(N)=O)C(=O)N[C@@H](CCCCNC(=O)[C@@H](N)CCCNC(=O)CC[C@H](NC(=O)CC[C@H](NC(=O)CC[C@H](NC(=O)CC[C@H](NC(=O)CC[C@H](NC(=O)CC[C@H](NC(=O)CCCCCCCCCCCCCCCCC(=O)O)C(=O)O)C(=O)O)C(=O)O)C(=O)O)C(=O)O)C(=O)O)C(=O)NC(C)(C)C(=O)N[C@H](C(=O)N[C@@H](CCCNC(=N)N)C(=O)N[C@@H](CCC(N)=O)C(=O)N[C@@H](CCCNC(=N)N)C(=O)N[C@@H](Cc1ccc(O)cc1)C(N)=O)[C@@H](C)O [Compound 87, Y-Aib-E-G-T-F-T-S-D-Y-S-I-Aib-L-E-K-Q-A-Q-Aib-A-F-V-R-H-L-I-N-K(1,3)-Aib-T-R-Q-R-Y-NH2.C18DA-gGlu-gGlu-gGlu-gGlu-gGlu-gGlu-dtOrn(1,2)] |
| 3.8 | 0.6 | 135 | 4700 |  |  | CC[C@H](C)[C@H](NC(=O)[C@H](CC(C)C)NC(=O)[C@H](Cc1c[nH]cn1)NC(=O)[C@H](CCCNC(=N)N)NC(=O)[C@@H](NC(=O)[C@H](Cc1ccccc1)NC(=O)[C@H](C)NC(=O)C(C)(C)NC(=O)[C@H](CCC(N)=O)NC(=O)[C@H](C)NC(=O)[C@H](CCC(N)=O)NC(=O)[C@H](CCCCN)NC(=O)[C@H](CCC(=O)O)NC(=O)[C@H](CC(C)C)NC(=O)C(C)(C)NC(=O)[C@@H](NC(=O)[C@H](CO)NC(=O)[C@H](Cc1ccc(O)cc1)NC(=O)[C@H](CC(=O)O)NC(=O)[C@H](CO)NC(=O)[C@@H](NC(=O)[C@H](Cc1ccccc1)NC(=O)[C@@H](NC(=O)CNC(=O)[C@H](CCC(=O)O)NC(=O)C(C)(C)NC(=O)[C@@H](N)Cc1ccc(O)cc1)[C@@H](C)O)[C@@H](C)O)[C@@H](C)CC)C(C)C)C(=O)N[C@@H](CC(N)=O)C(=O)N[C@@H](CCCCNC(=O)[C@@H](N)CCCNC(=O)CC[C@H](NC(=O)CC[C@H](NC(=O)CC[C@H](NC(=O)CC[C@H](NC(=O)CC[C@H](NC(=O)CC[C@H](NC(=O)CCCCCCCCCCCCCCCCCCC(=O)O)C(=O)O)C(=O)O)C(=O)O)C(=O)O)C(=O)O)C(=O)O)C(=O)NC(C)(C)C(=O)N[C@H](C(=O)N[C@@H](CCCNC(=N)N)C(=O)N[C@@H](CCC(N)=O)C(=O)N[C@@H](CCCNC(=N)N)C(=O)N[C@@H](Cc1ccc(O)cc1)C(N)=O)[C@@H](C)O [Compound 97, Y-Aib-E-G-T-F-T-S-D-Y-S-I-Aib-L-E-K-Q-A-Q-Aib-A-F-V-R-H-L-I-N-K(1,3)-Aib-T-R-Q-R-Y-NH2.C20DA-gGlu-gGlu-gGlu-gGlu-gGlu-gGlu-dtOrn(1,2)] |
| 0.4 | 0.2 | 131 | 9700 | 0.6 |  | CC[C@H](C)[C@H](NC(=O)[C@H](CC(C)C)NC(=O)[C@H](Cc1c[nH]cn1)NC(=O)[C@H](CCCNC(=N)N)NC(=O)[C@@H](NC(=O)[C@H](Cc1ccccc1)NC(=O)[C@H](C)NC(=O)C(C)(C)NC(=O)[C@H](CCC(=O)O)NC(=O)[C@H](C)NC(=O)[C@H](CCC(N)=O)NC(=O)[C@H](CCCCN)NC(=O)[C@H](CCC(=O)O)NC(=O)[C@H](CC(C)C)NC(=O)[C@](C)(CC(C)C)NC(=O)[C@@H](NC(=O)[C@H](CO)NC(=O)[C@H](Cc1ccc(O)cc1)NC(=O)[C@H](CC(=O)O)NC(=O)[C@H](CO)NC(=O)[C@@H](NC(=O)[C@H](Cc1ccccc1)NC(=O)[C@@H](NC(=O)CNC(=O)[C@H](CCC(=O)O)NC(=O)C(C)(C)NC(=O)[C@@H](N)Cc1ccc(O)cc1)[C@@H](C)O)[C@@H](C)O)[C@@H](C)CC)C(C)C)C(=O)N[C@@H](CC(N)=O)C(=O)N[C@@H](CCCCNC(=O)[C@@H](N)CCCCNC(=O)CC[C@H](NC(=O)CC[C@H](NC(=O)CC[C@H](NC(=O)CC[C@H](NC(=O)CC[C@H](NC(=O)CC[C@H](NC(=O)CCCCCCCCCCCCCCCCCCC(=O)O)C(=O)O)C(=O)O)C(=O)O)C(=O)O)C(=O)O)C(=O)O)C(=O)NC(C)(C)C(=O)N[C@H](C(=O)N[C@@H](CCCNC(=N)N)C(=O)N[C@@H](CCC(N)=O)C(=O)N[C@@H](CCCNC(=N)N)C(=O)N[C@@H](Cc1ccc(O)cc1)C(N)=O)[C@@H](C)O [Compound 103, Y-Aib-E-G-T-F-T-S-D-Y-S-I-aMeL-L-E-K-Q-A-E-Aib-A-F-V-R-H-L-I-N-K(1,3)-Aib-T-R-Q-R-Y-NH2.C20DA-gGlu-gGlu-gGlu-gGlu-gGlu-gGlu-eLys(1,2)] |
| 0.3 | 0.4 |  | 8000 | 3.4 | 19.9 | CC[C@H](C)[C@H](NC(=O)[C@H](CC(C)C)NC(=O)[C@H](Cc1c[nH]cn1)NC(=O)[C@H](CCCNC(=N)N)NC(=O)[C@@H](NC(=O)[C@H](Cc1ccccc1)NC(=O)[C@H](C)NC(=O)C(C)(C)NC(=O)[C@H](CCC(N)=O)NC(=O)[C@H](C)NC(=O)[C@H](CCC(N)=O)NC(=O)[C@H](CCCCN)NC(=O)[C@H](CC(=O)O)NC(=O)[C@H](CC(C)C)NC(=O)C(C)(C)NC(=O)[C@@H](NC(=O)[C@H](CO)NC(=O)[C@H](Cc1ccc(O)cc1)NC(=O)[C@H](CC(=O)O)NC(=O)[C@H](CO)NC(=O)[C@@H](NC(=O)[C@H](Cc1ccccc1)NC(=O)[C@@H](NC(=O)CNC(=O)[C@H](CCC(=O)O)NC(=O)C(C)(C)NC(=O)[C@@H](N)Cc1ccc(O)cc1)[C@@H](C)O)[C@@H](C)O)[C@@H](C)CC)C(C)C)C(=O)N[C@@H](CC(N)=O)C(=O)N[C@@H](CCCCNC(=O)[C@@H](N)CCCCNC(=O)CC[C@H](NC(=O)CC[C@H](NC(=O)CC[C@H](NC(=O)CC[C@H](NC(=O)CC[C@H](NC(=O)CC[C@H](NC(=O)CCCCCCCCCCCCCCCCC(=O)O)C(=O)O)C(=O)O)C(=O)O)C(=O)O)C(=O)O)C(=O)O)C(=O)NC(C)(C)C(=O)N[C@H](C(=O)N[C@@H](CCCNC(=N)N)C(=O)N[C@@H](CCC(N)=O)C(=O)N[C@@H](CCCNC(=N)N)C(=O)N[C@@H](Cc1ccc(O)cc1)C(N)=O)[C@@H](C)O [Compound 105, Y-Aib-E-G-T-F-T-S-D-Y-S-I-Aib-L-D-K-Q-A-Q-Aib-A-F-V-R-H-L-I-N-K(1,3)-Aib-T-R-Q-R-Y-NH2.C18DA-gGlu-gGlu-gGlu-gGlu-gGlu-gGlu-eLys(1,2)] |
| 0.3 | 0.1 |  | 3800 |  | 60.8 | CC[C@H](C)[C@H](NC(=O)[C@H](CO)NC(=O)[C@H](Cc1ccc(O)cc1)NC(=O)[C@H](CC(=O)O)NC(=O)[C@H](CO)NC(=O)[C@@H](NC(=O)[C@H](Cc1ccccc1)NC(=O)[C@@H](NC(=O)CNC(=O)[C@H](CCC(=O)O)NC(=O)C(C)(C)NC(=O)[C@@H](N)Cc1ccc(O)cc1)[C@@H](C)O)[C@@H](C)O)C(=O)N[C@@H](CC(C)C)C(=O)N[C@@H](CC(C)C)C(=O)N[C@@H](CCC(=O)O)C(=O)N[C@@H](CCCCN)C(=O)N[C@@H](CCC(N)=O)C(=O)N[C@@H](C)C(=O)N[C@@H](CCC(N)=O)C(=O)NC(C)(C)C(=O)N[C@@H](C)C(=O)N[C@@H](Cc1ccccc1)C(=O)N[C@H](C(=O)N[C@@H](CCCNC(=N)N)C(=O)N[C@@H](Cc1c[nH]cn1)C(=O)N[C@@H](CC(C)C)C(=O)N[C@H](C(=O)N[C@@H](CC(N)=O)C(=O)N[C@@H](CCCCNC(=O)CC[C@H](NC(=O)CC[C@H](NC(=O)CC[C@H](NC(=O)CC[C@H](NC(=O)CC[C@H](NC(=O)CCCCCCCCCCCCCCCCC(=O)O)C(=O)O)C(=O)O)C(=O)O)C(=O)O)C(=O)O)C(=O)NC(C)(C)C(=O)N[C@H](C(=O)N[C@@H](CCCNC(=N)N)C(=O)N[C@@H](CCC(N)=O)C(=O)N[C@@H](CCCNC(=N)N)C(=O)N[C@@H](Cc1ccc(O)cc1)C(N)=O)[C@@H](C)O)[C@@H](C)CC)C(C)C [Compound 122, Y-Aib-E-G-T-F-T-S-D-Y-S-I-L-L-E-K-Q-A-Q-Aib-A-F-V-R-H-L-I-N-K(1,3)-Aib-T-R-Q-R-Y-NH2.C18DA-gGlu-gGlu-gGlu-gGlu-gGlu(1,2)] |
